{"source": "PubChem BioAssay (NCI)", "assay_in_all_cases": "NCI tumour cell line growth inhibition, 48 h", "key": {"[1]": {"tested_on": "A549 NSCLC"}, "[2]": {"tested_on": "IGROV1 ovarian"}, "[3]": {"tested_on": "MDA-MB-231 breast"}, "[4]": {"tested_on": "NCI-H522 lung"}, "[5]": {"tested_on": "RXF 393 renal"}, "[6]": {"tested_on": "SK-MEL-2 melanoma"}, "[7]": {"tested_on": "SK-MEL-5 melanoma"}, "[8]": {"tested_on": "SR leukemia"}, "[9]": {"tested_on": "T-47D breast"}, "[10]": {"tested_on": "UACC-62 melanoma"}}, "note": "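Values below derive from 48-hour exposures of cells grown in 96-well plates, with endpoints linearly interpolated between the two concentrations bracketing the appropriate inhibition level. TGI marks complete inhibition of growth.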"}
{"smiles": "CC(C)CCC[C@@H](C)[C@H]1CC[C@H]2[C@@H]3CC=C4C[C@@H](OC(=O)c5cccc6c(=O)c7ccccc7[nH]c56)CC[C@]4(C)[C@H]3CC[C@]12C", "values": [{"measurement": "TGI", "setting": "[1]", "result": "> 75", "unit": "µM"}, {"measurement": "TGI", "setting": "[2]", "result": "> 75", "unit": "µM"}, {"measurement": "TGI", "setting": "[3]", "result": "> 75", "unit": "µM"}, {"measurement": "TGI", "setting": "[4]", "result": "> 75", "unit": "µM"}, {"measurement": "TGI", "setting": "[5]", "result": "> 75", "unit": "µM"}, {"measurement": "TGI", "setting": "[6]", "result": "> 75", "unit": "µM"}, {"measurement": "TGI", "setting": "[7]", "result": "> 75", "unit": "µM"}, {"measurement": "TGI", "setting": "[8]", "result": "> 75", "unit": "µM"}, {"measurement": "TGI", "setting": "[9]", "result": "> 75", "unit": "µM"}, {"measurement": "TGI", "setting": "[10]", "result": "> 75", "unit": "µM"}]}
{"smiles": "CCOC(=O)c1ccc2nc(NC(=O)COC(=O)CSc3nc(C)cc(C)n3)sc2c1", "values": [{"measurement": "TGI", "setting": "[1]", "result": "> 100", "unit": "µM"}, {"measurement": "TGI", "setting": "[2]", "result": "> 100", "unit": "µM"}, {"measurement": "TGI", "setting": "[3]", "result": "> 100", "unit": "µM"}, {"measurement": "TGI", "setting": "[4]", "result": "> 100", "unit": "µM"}, {"measurement": "TGI", "setting": "[5]", "result": "> 100", "unit": "µM"}, {"measurement": "TGI", "setting": "[6]", "result": "> 100", "unit": "µM"}, {"measurement": "TGI", "setting": "[7]", "result": "> 100", "unit": "µM"}, {"measurement": "TGI", "setting": "[8]", "result": "> 100", "unit": "µM"}, {"measurement": "TGI", "setting": "[9]", "result": 63.6, "unit": "µM"}, {"measurement": "TGI", "setting": "[10]", "result": "> 100", "unit": "µM"}]}
{"smiles": "Nc1ccc2c(c1)C(=O)c1ccccc1-2", "values": [{"measurement": "TGI", "setting": "[1]", "result": "> 100", "unit": "µM"}, {"measurement": "TGI", "setting": "[2]", "result": "> 100", "unit": "µM"}, {"measurement": "TGI", "setting": "[3]", "result": "> 100", "unit": "µM"}, {"measurement": "TGI", "setting": "[4]", "result": "> 100", "unit": "µM"}, {"measurement": "TGI", "setting": "[5]", "result": "> 100", "unit": "µM"}, {"measurement": "TGI", "setting": "[6]", "result": "> 100", "unit": "µM"}, {"measurement": "TGI", "setting": "[7]", "result": "> 100", "unit": "µM"}, {"measurement": "TGI", "setting": "[8]", "result": "> 100", "unit": "µM"}, {"measurement": "TGI", "setting": "[9]", "result": "> 100", "unit": "µM"}, {"measurement": "TGI", "setting": "[10]", "result": "> 100", "unit": "µM"}]}
{"smiles": "Cc1cc(S(=O)(=O)Nc2nnc3c(C(F)(F)F)cc(Cl)cn23)c(S)cc1Cl", "values": [{"measurement": "TGI", "setting": "[1]", "result": "> 100", "unit": "µM"}, {"measurement": "TGI", "setting": "[2]", "result": "> 100", "unit": "µM"}, {"measurement": "TGI", "setting": "[3]", "result": "> 100", "unit": "µM"}, {"measurement": "TGI", "setting": "[4]", "result": "> 100", "unit": "µM"}, {"measurement": "TGI", "setting": "[5]", "result": "> 100", "unit": "µM"}, {"measurement": "TGI", "setting": "[6]", "result": "> 100", "unit": "µM"}, {"measurement": "TGI", "setting": "[7]", "result": "> 100", "unit": "µM"}, {"measurement": "TGI", "setting": "[8]", "result": "> 100", "unit": "µM"}, {"measurement": "TGI", "setting": "[9]", "result": "> 100", "unit": "µM"}, {"measurement": "TGI", "setting": "[10]", "result": "> 100", "unit": "µM"}]}
{"smiles": "N#CC1=C(N)C(C#N)(C#N)C(c2ccc(F)cc2)C=C1C1CC1", "note": "(stereo not given)", "values": [{"measurement": "TGI", "setting": "[1]", "result": 41.7, "unit": "µM"}, {"measurement": "TGI", "setting": "[2]", "result": 25.5, "unit": "µM"}, {"measurement": "TGI", "setting": "[3]", "result": 33.1, "unit": "µM"}, {"measurement": "TGI", "setting": "[4]", "result": 14.1, "unit": "µM"}, {"measurement": "TGI", "setting": "[5]", "result": 18.6, "unit": "µM"}, {"measurement": "TGI", "setting": "[6]", "result": 19.4, "unit": "µM"}, {"measurement": "TGI", "setting": "[7]", "result": 16.2, "unit": "µM"}, {"measurement": "TGI", "setting": "[8]", "result": 12.9, "unit": "µM"}, {"measurement": "TGI", "setting": "[9]", "result": 29, "unit": "µM"}, {"measurement": "TGI", "setting": "[10]", "result": 21.5, "unit": "µM"}]}
{"smiles": "CCOC(=O)c1ccc(C(=O)C(C(C)=O)C(=O)OC(C)(C)C)n1C", "note": "(stereo not given)", "values": [{"measurement": "TGI", "setting": "[1]", "result": "> 100", "unit": "µM"}, {"measurement": "TGI", "setting": "[2]", "result": "> 100", "unit": "µM"}, {"measurement": "TGI", "setting": "[3]", "result": "> 100", "unit": "µM"}, {"measurement": "TGI", "setting": "[4]", "result": "> 100", "unit": "µM"}, {"measurement": "TGI", "setting": "[5]", "result": "> 100", "unit": "µM"}, {"measurement": "TGI", "setting": "[6]", "result": "> 100", "unit": "µM"}, {"measurement": "TGI", "setting": "[7]", "result": "> 100", "unit": "µM"}, {"measurement": "TGI", "setting": "[8]", "result": "> 100", "unit": "µM"}, {"measurement": "TGI", "setting": "[9]", "result": "> 100", "unit": "µM"}, {"measurement": "TGI", "setting": "[10]", "result": "> 100", "unit": "µM"}]}
{"smiles": "Nc1nc(Cl)cc(N=Nc2ccccc2)n1", "values": [{"measurement": "TGI", "setting": "[1]", "result": "> 100", "unit": "µM"}, {"measurement": "TGI", "setting": "[2]", "result": 51.3, "unit": "µM"}, {"measurement": "TGI", "setting": "[3]", "result": "> 100", "unit": "µM"}, {"measurement": "TGI", "setting": "[4]", "result": "> 100", "unit": "µM"}, {"measurement": "TGI", "setting": "[5]", "result": 97.2, "unit": "µM"}, {"measurement": "TGI", "setting": "[6]", "result": 46.9, "unit": "µM"}, {"measurement": "TGI", "setting": "[7]", "result": 40, "unit": "µM"}, {"measurement": "TGI", "setting": "[8]", "result": "> 100", "unit": "µM"}, {"measurement": "TGI", "setting": "[9]", "result": "> 100", "unit": "µM"}, {"measurement": "TGI", "setting": "[10]", "result": "> 100", "unit": "µM"}]}
{"smiles": "OCC1OC(n2cnc3cccnc32)CC1O", "note": "(stereo not given)", "values": [{"measurement": "TGI", "setting": "[1]", "result": "> 100", "unit": "µM"}, {"measurement": "TGI", "setting": "[2]", "result": "> 100", "unit": "µM"}, {"measurement": "TGI", "setting": "[3]", "result": "> 100", "unit": "µM"}, {"measurement": "TGI", "setting": "[4]", "result": "> 100", "unit": "µM"}, {"measurement": "TGI", "setting": "[5]", "result": "> 100", "unit": "µM"}, {"measurement": "TGI", "setting": "[6]", "result": "> 100", "unit": "µM"}, {"measurement": "TGI", "setting": "[7]", "result": "> 100", "unit": "µM"}, {"measurement": "TGI", "setting": "[8]", "result": "> 100", "unit": "µM"}, {"measurement": "TGI", "setting": "[9]", "result": "> 100", "unit": "µM"}, {"measurement": "TGI", "setting": "[10]", "result": "> 100", "unit": "µM"}]}
{"smiles": "CN=C(Nn1cnnc1)OC", "values": [{"measurement": "TGI", "setting": "[1]", "result": "> 100", "unit": "µM"}, {"measurement": "TGI", "setting": "[2]", "result": "> 100", "unit": "µM"}, {"measurement": "TGI", "setting": "[3]", "result": "> 100", "unit": "µM"}, {"measurement": "TGI", "setting": "[4]", "result": "> 100", "unit": "µM"}, {"measurement": "TGI", "setting": "[5]", "result": "> 100", "unit": "µM"}, {"measurement": "TGI", "setting": "[6]", "result": "> 100", "unit": "µM"}, {"measurement": "TGI", "setting": "[7]", "result": "> 100", "unit": "µM"}, {"measurement": "TGI", "setting": "[8]", "result": "> 100", "unit": "µM"}, {"measurement": "TGI", "setting": "[9]", "result": "> 100", "unit": "µM"}, {"measurement": "TGI", "setting": "[10]", "result": "> 100", "unit": "µM"}]}
